Patent US9328083B2, “2-aminated methylene or 2-esterified methylene tanshinone derivatives, and preparation method and application thereof” (HANGZHOU BENSHENG PHARMACEUTICAL CO., LTD., priority 2011, dated 2016)
Converted amounts (≈) assume the structure as drawn.

Legend:
[1] = test system: H9 (acute lymphoblastic leukemia, ALL); assay: MTT growth inhibition of leukemia cells, 72 h; assay type: cell-based, human; details: Homo sapiens, H9, 72 h; for IC50: read-out: IC50; for IC90: read-out: IC90
Summary of the method: (§1)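 Seed 6000 cells per well in serum-supplemented RPMI-1640 (10% FBS); next day add derivatives at several concentrations, diluted from a 10 mg/mL DMSO stock; incubate 72 h at 37 °C, 5% CO2; quantify surviving cells with MTT.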

[2] = test system: Jurkat (acute lymphoblastic leukemia, ALL); assay: MTT growth inhibition of leukemia cells, 72 h; assay type: cell-based, human; details: Homo sapiens, 72 h; for IC50: read-out: IC50; for IC90: read-out: IC90
Summary of the method: as §1

[3] = test system: K562/adr (drug-resistant, chronic myeloid leukemia, CML); assay: MTT growth inhibition of leukemia cells, 72 h; assay type: cell-based, human; details: Homo sapiens, K562/Adr; for IC50: read-out: IC50; for IC90: read-out: IC90
Summary of the method: as §1

[4] = test system: Kasumi-1 (acute myeloid leukemia M2 type, AML-M2); assay: MTT growth inhibition of leukemia cells, 72 h; assay type: cell-based, human; details: Homo sapiens, Kasumi-1, 72 h; for IC50: read-out: IC50; for IC90: read-out: IC90
Summary of the method: as §1

[5] = test system: NB4 (acute promyelocytic leukemia, AML); assay: MTT growth inhibition of leukemia cells, 72 h; assay type: cell-based, human; details: Homo sapiens, NB4, 72 h; for IC50: read-out: IC50; for IC90: read-out: IC90
Summary of the method: as §1

[6] = test system: RPMI8226 (multiple myeloma); assay: MTT growth inhibition of multiple myeloma cells, 72 h; assay type: cell-based, human; details: Homo sapiens, RPMI 8226, 72 h; for IC50: read-out: IC50; for IC90: read-out: IC90
Summary of the method: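 Viability read by MTT after 72 h at 37° C, 5% CO2: compounds from a 10 mg/mL DMSO stock were diluted in medium and added at several concentrations to 6000 RPMI8226 cells per well in 1640 medium plus 10% FBS.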

A549 (human lung cancer) = assay: MTT growth inhibition of human solid tumor cells, 72 h; assay type: cell-based; details: Homo sapiens, A549, 72 h; for IC50: read-out: IC50; for IC90: read-out: IC90
Summary of the method: (§2)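 Viability was read by MTT after 72 h of compound exposure at 37°C, 5% CO2, in cells seeded at 4000 per well and pre-grown for 24 h in DMEM high glucose plus 10% FBS. Test solutions came from a 10 mg/mL DMSO stock diluted in medium.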

[7] = test system: Becap37 (human breast cancer cell); assay: as above; assay type: cell-based; details: Homo sapiens, Becap-37, 72 h; for IC50: read-out: IC50; for IC90: read-out: IC90
Summary of the method: as §2

[8] = test system: CNE (nasopharyngeal carcinoma cell); assay: as above; assay type: cell-based; details: Homo sapiens; for IC50: read-out: IC50; for IC90: read-out: IC90
Summary of the method: as §2

[9] = test system: CaES-17 (esophageal cancer cell); assay: as above; assay type: cell-based; details: Homo sapiens, CaEs17, CaEs-17, 72 h; for IC50: read-out: IC50; for IC90: read-out: IC90
Summary of the method: as §2

[10] = test system: Hela (human cervical cancer cell); assay: as above; assay type: cell-based; details: Homo sapiens, HeLa, 72 h; for IC50: read-out: IC50; for IC90: read-out: IC90
Summary of the method: as §2

[11] = test system: Hep G2 (human liver cancer cell); assay: as above; assay type: cell-based; details: Homo sapiens, HepG2, Hep G2, 72 h; for IC50: read-out: IC50; for IC90: read-out: IC90
Summary of the method: as §2

[12] = test system: Hep-2 (laryngeal carcinoma); assay: as above; assay type: cell-based; details: Homo sapiens, HEp-2, 72 h; for IC50: read-out: IC50; for IC90: read-out: IC90
Summary of the method: as §2

MG63 (osteosarcoma) = assay: as above; assay type: cell-based; details: Homo sapiens, MG-63, 72 h; for IC50: read-out: IC50; for IC90: read-out: IC90
Summary of the method: as §2

[13] = test system: MGC 803 (human gastric cancer cell); assay: as above; assay type: cell-based; details: Homo sapiens, MGC-803, 72 h; for IC50: read-out: IC50; for IC90: read-out: IC90
Summary of the method: as §2

[14] = test system: PANC-1 (pancreatic cancer); assay: as above; assay type: cell-based; details: Homo sapiens, PANC-1, 72 h; for IC50: read-out: IC50; for IC90: read-out: IC90
Summary of the method: as §2

PC-3 (prostate cancer) = assay: as above; assay type: cell-based; details: Homo sapiens, PC-3, 72 h; for IC50: read-out: IC50; for IC90: read-out: IC90
Summary of the method: as §2

[15] = test system: RKO (human colon adenocarcinoma cell); assay: as above; assay type: cell-based; details: Homo sapiens; for IC50: read-out: IC50; for IC90: read-out: IC90
Summary of the method: as §2

[16] = test system: SK-OV-3 (ovarian cancer cell); assay: as above; assay type: cell-based; details: Homo sapiens, SK-OV-3, 72 h; for IC50: read-out: IC50; for IC90: read-out: IC90
Summary of the method: as §2

[17] = test system: U87 MG (malignant glioma cell); assay: as above; assay type: cell-based; details: Homo sapiens, U-87 MG, U87-MG, 72 h; for IC50: read-out: IC50; for IC90: read-out: IC90
Summary of the method: as §2

Compound	IC50 [1]	IC90 [1]	IC50 [2]	IC90 [2]	IC50 [3]	IC90 [3]	IC50 [4]	IC90 [4]	IC50 [5]	IC90 [5]	IC50 [6]	IC90 [6]	IC50 (A549 (human lung cancer))	IC90 (A549 (human lung cancer))	IC50 [7]	IC90 [7]	IC50 [8]	IC90 [8]	IC50 [9]	IC90 [9]	other results
COC(=O)/C=C/C(=O)OCCN(C)Cc1oc2c(c1C)C(=O)C(=O)c1c-2ccc2c(C)cccc12 [BS-TA-74]	0.25 µg/mL (≈ 0.526 µM)	1.49 µg/mL (≈ 3.13 µM)	0.96 µg/mL (≈ 2.02 µM)	1.86 µg/mL (≈ 3.91 µM)	0.8 µg/mL (≈ 1.68 µM)	1.8 µg/mL (≈ 3.79 µM)	0.26 µg/mL (≈ 0.547 µM)	1.57 µg/mL (≈ 3.3 µM)	0.19 µg/mL (≈ 0.4 µM)	0.49 µg/mL (≈ 1.03 µM)	0.45 µg/mL (≈ 0.946 µM)	1.78 µg/mL (≈ 3.74 µM)	1.79 µg/mL (≈ 3.76 µM)	6.05 µg/mL (≈ 12.7 µM)	0.85 µg/mL (≈ 1.79 µM)	1.81 µg/mL (≈ 3.81 µM)	1.39 µg/mL (≈ 2.92 µM)	2.91 µg/mL (≈ 6.12 µM)	1.09 µg/mL (≈ 2.29 µM)	1.86 µg/mL (≈ 3.91 µM)	IC50 [10]: 1.15 µg/mL (≈ 2.42 µM); IC90 [10]: 3.59 µg/mL (≈ 7.55 µM); IC50 [11]: 1.35 µg/mL (≈ 2.84 µM); IC90 [11]: 5.26 µg/mL (≈ 11.1 µM); IC50 [12]: 1.28 µg/mL (≈ 2.69 µM); IC90 [12]: 3.67 µg/mL (≈ 7.72 µM); IC50 (MG63 (osteosarcoma)): 1.02 µg/mL (≈ 2.15 µM); IC90 (MG63 (osteosarcoma)): 3.26 µg/mL (≈ 6.86 µM); IC50 [13]: 0.8 µg/mL (≈ 1.68 µM); IC90 [13]: 3.87 µg/mL (≈ 8.14 µM); IC50 [14]: 0.87 µg/mL (≈ 1.83 µM); IC90 [14]: 11.1 µg/mL (≈ 23.3 µM); IC50 (PC-3 (prostate cancer)): 1.71 µg/mL (≈ 3.6 µM); IC90 (PC-3 (prostate cancer)): 8.19 µg/mL (≈ 17.2 µM); IC50 [15]: 0.28 µg/mL (≈ 0.589 µM); IC90 [15]: 2.88 µg/mL (≈ 6.06 µM); IC50 [16]: 3.96 µg/mL (≈ 8.33 µM); IC90 [16]: 7.99 µg/mL (≈ 16.8 µM); IC50 [17]: 0.86 µg/mL (≈ 1.81 µM); IC90 [17]: 1.83 µg/mL (≈ 3.85 µM)
Cc1c(COC(=O)c2ccnc(Cl)c2)oc2c1C(=O)C(=O)c1c-2ccc2c(C)cccc12 [BS-TA-A01]	3.09 µg/mL (≈ 6.93 µM)	10.4 µg/mL (≈ 23.2 µM)	3 µg/mL (≈ 6.73 µM)	9.27 µg/mL (≈ 20.8 µM)	2.33 µg/mL (≈ 5.23 µM)	6.24 µg/mL (≈ 14 µM)	1.75 µg/mL (≈ 3.93 µM)	3.91 µg/mL (≈ 8.77 µM)	0.99 µg/mL (≈ 2.22 µM)	3.97 µg/mL (≈ 8.9 µM)	3.39 µg/mL (≈ 7.6 µM)	7.85 µg/mL (≈ 17.6 µM)	6.23 µg/mL (≈ 14 µM)	> 16 µg/mL	4.74 µg/mL (≈ 10.6 µM)	10.8 µg/mL (≈ 24.1 µM)	4.1 µg/mL (≈ 9.2 µM)	45 µg/mL (≈ 101 µM)	6.36 µg/mL (≈ 14.3 µM)	12.7 µg/mL (≈ 28.4 µM)	IC50 [10]: 4.5 µg/mL (≈ 10.1 µM); IC90 [10]: 14.9 µg/mL (≈ 33.3 µM); IC50 [11]: 4.82 µg/mL (≈ 10.8 µM); IC90 [11]: 16 µg/mL (≈ 35.9 µM); IC50 [12]: 3.96 µg/mL (≈ 8.88 µM); IC90 [12]: 19.1 µg/mL (≈ 42.9 µM); IC50 (MG63 (osteosarcoma)): 2.87 µg/mL (≈ 6.44 µM); IC90 (MG63 (osteosarcoma)): 14 µg/mL (≈ 31.4 µM); IC50 [13]: 5.38 µg/mL (≈ 12.1 µM); IC90 [13]: 16 µg/mL (≈ 35.9 µM); IC50 [14]: 3.31 µg/mL (≈ 7.42 µM); IC90 [14]: 12 µg/mL (≈ 27 µM); IC50 (PC-3 (prostate cancer)): 5.32 µg/mL (≈ 11.9 µM); IC90 (PC-3 (prostate cancer)): 12.6 µg/mL (≈ 28.2 µM); IC50 [15]: 1.46 µg/mL (≈ 3.27 µM); IC90 [15]: 13.4 µg/mL (≈ 30.1 µM); IC50 [16]: > 16 µg/mL; IC90 [16]: > 16 µg/mL; IC50 [17]: 5.71 µg/mL (≈ 12.8 µM); IC90 [17]: 14.2 µg/mL (≈ 31.7 µM)
